This test relates to MX-1 breast xenograft, nude mice, tumor weight T/C. Kind of test: NCI In Vivo Anticancer Drug Screen. Data for tumor model Human Mammary Carcinoma MX-1 Xenograft (intrarenal inoculation) in NU/NU Swiss (nude) mice. The following applies: endpoint: mean tumor weight change, higher = larger tumour. The method, then:
The antitumor activity of compounds was measured in mice bearing transplantable tumors. Survival or tumor size were measured and the results are expressed as the measurement made in the treated group (T) divided by the measurement made in the vehicle treated control group (C). The tumor model used in this assay is Human Mammary Carcinoma MX-1 Xenograft (intrarenal inoculation) in NU/NU Swiss (nude) mice
On the technique in general: In xenograft studies the graft and the host belong to different species.

Where [1] appears, read: dose: 600.0 mg/kg/injection, schedule: Q04DX003 (sc), vehicle: saline.
Where [2] appears, read: dose: 1200.0 mg/kg/injection, schedule: Q04DX003 (sc), vehicle: saline.
Where [3] appears, read: dose: 2400.0 mg/kg/injection, schedule: Q04DX003 (sc), vehicle: saline.
[4] abbreviates: dose: 300.0 mg/kg/injection, schedule: Q04DX003 (sc), vehicle: suspension in saline.
[5] abbreviates: dose: 600.0 mg/kg/injection, schedule: Q04DX003 (sc), vehicle: suspension in saline.
Where [6] appears, read: dose: 1200.0 mg/kg/injection, schedule: Q04DX003 (sc), vehicle: suspension in saline.
Where [7] appears, read: dose: 200.0 mg/kg/injection, schedule: Q04DX003 (sc), vehicle: water.
Where [8] appears, read: dose: 400.0 mg/kg/injection, schedule: Q04DX003 (sc), vehicle: water.

Records with an inconclusive call do not appear.

For `Cc1cn(C2CC3[O][Sn]([c]4ccccc4)([c]4ccccc4)[O]CC3O2)c(=O)[nH]c1=O` (stereo not given), the T/C was 93 % of control (dose: 25.0 mg/kg/injection, schedule: Q01DX010 (sc), vehicle: saline); 93 % of control (dose: 100.0 mg/kg/injection, schedule: Q01DX010 (sc), vehicle: saline); 115 % of control (dose: 200.0 mg/kg/injection, schedule: Q01DX010 (sc), vehicle: saline); 86 % of control under setting [1]; 107 % of control under setting [2]; 64 % of control under setting [3].
As for `COc1cc2cc[n+](C)c(Cc3ccccc3)c2cc1OC`, the T/C runs as follows: (dose: 18.75 mg/kg/injection, schedule: Q04DX003 (sc), vehicle: Klucel (hydroxypropylcellulose) (HPC)) 90 % of control; (dose: 37.5 mg/kg/injection, schedule: Q04DX003 (sc), vehicle: Klucel (hydroxypropylcellulose) (HPC)) 115 % of control; (dose: 75.0 mg/kg/injection, schedule: Q04DX003 (sc), vehicle: Klucel (hydroxypropylcellulose) (HPC)) 58 % of control.
As for `Cc1cc(NCCCCCCCCNc2cc(C)nc3cc(N(C)C)ccc23)c2ccc(N(C)C)cc2n1`, the T/C is 67 % of control (dose: 150.0 mg/kg/injection, schedule: Q04DX003 (sc), vehicle: distilled water + Tween-80 + alcohol); 74 % of control (dose: 300.0 mg/kg/injection, schedule: Q04DX003 (sc), vehicle: distilled water + Tween-80 + alcohol); 43 % of control (dose: 600.0 mg/kg/injection, schedule: Q04DX003 (sc), vehicle: distilled water + Tween-80 + alcohol); 71 % of control (dose: 1200.0 mg/kg/injection, schedule: Q04DX003 (sc), vehicle: distilled water + Tween-80 + alcohol).
On to `C/C(=N\NC(N)=O)c1cccc(/C(C)=N/NC(N)=O)n1`, for which the T/C (dose: 600.0 mg/kg/injection, schedule: Q04DX003 (sc), vehicle: saline with Tween-80) was 98 % of control and the T/C (dose: 1200.0 mg/kg/injection, schedule: Q04DX003 (sc), vehicle: saline with Tween-80) is 74 % of control.
Turning to `O=C1NC(O)c2ccccc2O1` (stereo not given), the T/C by setting is: under setting [4], 25 % of control; under setting [5], 30 % of control; under setting [6], 26 % of control; (dose: 2400.0 mg/kg/injection, schedule: Q04DX003 (sc), vehicle: suspension in saline) 29 % of control.
Take `COC1=CCC23C(=O)C=CC(=O)C2(C1)C(=O)c1ccccc1C3=O` (stereo not given): under “dose: 37.5 mg/kg/injection, schedule: Q04DX003 (ip), vehicle: saline with Tween-80”, the T/C is 109 % of control.
For `CC(=O)NC(C=O)OCC=O` (stereo not given), the T/C is 108 % of control (dose: 100.0 mg/kg/injection, schedule: Q04DX003 (sc), vehicle: water); 72 % of control under setting [7]; 91 % of control under setting [8].
With `O=c1[nH]cnc2[nH]ncc12`, the T/C (dose: 150.0 mg/kg/injection, schedule: Q04DX003 (sc), vehicle: suspension in saline) is 46 % of control; the T/C under setting [4] is 44 % of control; the T/C under setting [5] was 119 % of control; the T/C under setting [6] is 112 % of control.
Regarding `NC(=O)c1ccc[n+](Cc2c(Cl)cccc2Cl)c1`, the T/C runs as follows: (dose: 50.0 mg/kg/injection, schedule: Q04DX003 (sc), vehicle: saline) 92 % of control; (dose: 100.0 mg/kg/injection, schedule: Q04DX003 (sc), vehicle: saline) 100 % of control.
On to `COc1ccc(OC)c(Cc2cnc3nc(N)nc(N)c3c2C)c1`, for which the T/C is 73 % of control (dose: 75.0 mg/kg/injection, schedule: Q04DX003 (sc), vehicle: water); 56 % of control (dose: 150.0 mg/kg/injection, schedule: Q04DX003 (sc), vehicle: water); 53 % of control (dose: 300.0 mg/kg/injection, schedule: Q04DX003 (sc), vehicle: water); 62 % of control (dose: 600.0 mg/kg/injection, schedule: Q04DX003 (sc), vehicle: water).
For `CCc1ccccc1N1CCN(C(=O)c2cc(OC)c(OC)c(OC)c2)CC1`, the T/C is 88 % of control (dose: 100.0 mg/kg/injection, schedule: Q04DX003 (sc), vehicle: Klucel (hydroxypropylcellulose) (HPC)); 86 % of control (dose: 200.0 mg/kg/injection, schedule: Q04DX003 (sc), vehicle: Klucel (hydroxypropylcellulose) (HPC)); 50 % of control (dose: 400.0 mg/kg/injection, schedule: Q04DX003 (sc), vehicle: Klucel (hydroxypropylcellulose) (HPC)).
For `O=C1C=C[C@H](O)[C@@]2(CO)O[C@@H]12`, the T/C (dose: 3.12 mg/kg/injection, schedule: Q04DX003 (sc), vehicle: saline with Tween-80) is 106 % of control and the T/C (dose: 6.25 mg/kg/injection, schedule: Q04DX003 (sc), vehicle: saline with Tween-80) was 85 % of control.
`CC(=O)C(O)N1C(=O)C=CC1=O` (stereo not given): the T/C runs as follows: (dose: 2.5 mg/kg/injection, schedule: Q01DX010 (sc), vehicle: saline) 157 % of control; (dose: 5.0 mg/kg/injection, schedule: Q01DX010 (sc), vehicle: saline) 117 % of control; (dose: 10.0 mg/kg/injection, schedule: Q01DX010 (sc), vehicle: saline) 159 % of control.
As to `CC1=C(O)C(=O)[C@@H]2O[C@@H]2C1=O`, the T/C was 86 % of control (dose: 2.35 mg/kg/injection, schedule: Q04DX003 (sc), vehicle: saline); 82 % of control (dose: 4.69 mg/kg/injection, schedule: Q04DX003 (sc), vehicle: saline); 119 % of control (dose: 9.38 mg/kg/injection, schedule: Q04DX003 (sc), vehicle: saline); 63 % of control (dose: 18.75 mg/kg/injection, schedule: Q04DX003 (sc), vehicle: saline).
Consider `COc1cc(Cc2nccc3cc(OC)c(OC)cc23)c(C(C)=O)c(OC)c1`, for which the T/C (dose: 40.0 mg/kg/injection, schedule: Q01DX010 (sc), vehicle: saline) was 103 % of control; the T/C (dose: 80.0 mg/kg/injection, schedule: Q01DX010 (sc), vehicle: saline) was 103 % of control; the T/C (dose: 160.0 mg/kg/injection, schedule: Q01DX010 (sc), vehicle: saline) is 93 % of control.
Consider `O=c1[nH]c(=O)n(C2CC(O)C(CO)O2)cc1I` (stereo not given), for which the T/C is, setting by setting: (dose: 100.0 mg/kg/injection, schedule: Q01DX010 (sc), vehicle: saline with Tween-80) 55 % of control; (dose: 200.0 mg/kg/injection, schedule: Q01DX010 (sc), vehicle: saline with Tween-80) 38 % of control; (dose: 400.0 mg/kg/injection, schedule: Q01DX010 (sc), vehicle: saline with Tween-80) 48 % of control.
For `COc1cc(OC)c(OC)cc1/C=C\c1ccnc2ccccc12`, the T/C is 85 % of control (dose: 300.0 mg/kg/injection, schedule: Q04DX003 (sc), vehicle: Klucel (hydroxypropylcellulose) (HPC)); 110 % of control (dose: 600.0 mg/kg/injection, schedule: Q04DX003 (sc), vehicle: Klucel (hydroxypropylcellulose) (HPC)); 99 % of control (dose: 1200.0 mg/kg/injection, schedule: Q04DX003 (sc), vehicle: Klucel (hydroxypropylcellulose) (HPC)).
With `O=C(NO)c1ccc(O)c(O)c1`, the T/C by setting is: (dose: 200.0 mg/kg/injection, schedule: Q04DX003 (sc), vehicle: other) 26 % of control; under setting [7], 104 % of control; (dose: 400.0 mg/kg/injection, schedule: Q04DX003 (sc), vehicle: other) 60 % of control; under setting [8], 87 % of control; (dose: 800.0 mg/kg/injection, schedule: Q04DX003 (sc), vehicle: other) 18 % of control; (dose: 800.0 mg/kg/injection, schedule: Q04DX003 (sc), vehicle: water) 78 % of control. The T/C (dose: 1200.0 mg/kg/injection, schedule: Q04DX003 (sc), vehicle: distilled water + Tween-80) was 77 % of control.
`CCCCCC[C@@H](O)C/C=C\CCCCCCCC(=O)OCCO`: the T/C by setting is: (dose: 300.0 mg/kg/injection, schedule: Q04DX003 (sc), vehicle: saline) 87 % of control; under setting [1], 104 % of control; under setting [2], 96 % of control; under setting [3], 103 % of control.

(Values after PubChem BioAssay AID296 (DTP/NCI, 2004).)
